Measured values taken from publication PMC12196476, “New Nitrogen-, Oxygen-, and Sulfur-Containing Heterocyclic Compounds as Anti-Colon Cancer Agents: Synthesis, Multitargeted Evaluations, Molecular Docking Simulations and ADMET Predictions” (Pharmaceuticals, 2025).

Legend:
[1] = tested on: LoVo colon carcinoma cells; test: Cell viability, LDH release assay, LoVo; conditions: 48 h; for viability at 100 µg/mL: read-out: Mean % of viable cells ± SD, LoVo, 100 µg/mL, 48 h, LDH release assay
Method: (§1) The studied compounds were also screened for their cytotoxic effects on HCT-116 and LoVo colon carcinoma cells, as well as normal HUVECs, using the standard LDH assay at a concentration of 100 µg/mL.
(§2) The antiproliferative activities of the newly synthesized compounds 3a–e, 8, 9a–c, 13, 14, 17, 18a–h, 20, 22, 23 and 25 were examined on human colon HCT-116 and LoVo cell lines as well as HUVEC (American Type Culture Collection, Manassas, VA, USA). […]
(§3) S3.2.4. Cell culture and viability assay.
(§4) The cytotoxic activities of the newly synthesized compounds (3a-e, 8, 9a-c, 13, 14, 17, 18a-h, 20, 22,
(§5) 23, and 25) were examined on human colon cancer cell lines HCT-116 and Lovo (American Type
(§6) Culture Collection, USA). Various concentrations (50, 100, 200, and 400 μg/mL) of test compounds
(§7) were prepared in Dulbecco’s Modified Eagles Medium (PAN-Biotech, Barcelona, Spain),

[2] = Cell viability, LDH release assay, normal HUVECs; conditions: human, normal HUVECs, Mean % of viable cells ± SD, HUVEC
Method: as §1, §2
(§8) medium served used as negative and positive controls, respectively. Percentages of viable cells […]
(§9) were calculated based on relative optical density (OD) values (at 550 nm) for compound-treated […]
(§10) wells (final concentration of 100 μg/mL), compared to the negative control, and expressed as mean value (%) ± SD from two replicates. Graphing dose-response curves representing the compound […]
(§11) concentration versus the percentages of viable cells was also conducted to deduce the half - […]
(§12) Additionally, the safety profiles of the studied compounds were assessed against normal cells […]
(§13) (HUVECs) at final concentration of 100 μg/mL . HUVECs were grown in Dulbecco’s Modified Eagle’s Medium supplemented with 10% FBS, 2 mM glutamine (Sigma Aldrich), 100 units/mL penicillin and […] streptomycin (Life Technologies; Paisley, UK). […]

[3] = target: recombinant human LDHA protein (Homo sapiens, UniProt P00338); test: In vitro LDHA inhibitory assay (NADH consumption); assay type: biochemical; conditions: 100 µg/mL, three replicates; for inhibition at 100 µg/mL: read-out: Mean Inhibition Percent ± SD, LDHA
From the text: The LDHA inhibitory efficiencies were investigated on Spectramax M2 spectrofluorometer via measuring the amounts of the consumed NADH^40 using an NAD^+/NADH quantification kit. […]
S3.2.3. In vitro LDHA inhibitory assay.
The LDHA inhibitory activity of the test compounds was investigated using Spectramax M2
spectrofluorometer by measuring the amounts of the consumed NADH [42] employing
NAD+/NADH quantification kit. Briefly, the assay medium containing various concentrations of
each test compound (50, 100, 200 and 300 μg/mL) was incubated in assay medium composed of 20
mM of HEPES-K+ buffer (pH 7.2), 20 μM of NADH, 2 mM of pyruvate and 10 ng of purified
recombinant human LDHA protein for 10 min utes. The activity of LDHA would result in reduction
of pyruvate into lactate with concomitant oxidation of NADH to NAD +. Since NADH (reduced
LDHA, could be inversely quantified by monitoring the change in the intensity of the fluorescence
at 340 nm over a 10-minute period. The rate of the fluorescence change (slope) in treated samples
was compared to that obtained from negative control experiment (100 % enzymatic activity) to
determine the percentage of inhibition. The IC50 value—defined as the compound concentration
required to reduce the luminescence by 50%, compared to untreated control wells—was
determined for each compound from the corresponding dose–response curve generated by
plotting LDHA inhibition (%) against compound concentration.
was used as the reference LDHA inhibitor. […]

PDK-1 = PDK-1 (Homo sapiens, UniProt Q15118); test: In vitro PDK-1 inhibition assay (Kinase-Glo luminescent kinase kit); assay type: biochemical; conditions: 100 µg/mL, three replicates; for inhibition at 100 µg/mL: read-out: Mean Inhibition Percent ± SD, PDK-1
Method: Principally, the PDK-1 inhibitory activities were evaluated using the non-radioactive Kinase-Glo™ Luminescent Kinase Kit (Promega Corporation, Madison, WI, USA) following the instructions of the manufacturer.
S3.2.2. In vitro PDK-1 inhibition assay.
The PDK-1 inhibitory activities of the test compounds were evaluated using the non-radioactive
Kinase-Glo™ Luminescent Kinase kit (Promega Corporation, Madison, WI, USA), following the
manufacturer’s protocol. Briefly, 5 μL of assay buffer—containing 10 × 250 mM Tris-HCl, 50 mM
MgCl2, 5 mM ethyleneglycol-bis(β-aminoethylether)-N,N,N′,N′-tetraacetic acid (EGTA), 10 mM
ethylenedi- aminetetraacetic acid (EDTA), and 10 mM dithiothreitol (DTT)—was added to each
well of a 96-well plate, along with 25 μL of distilled water. Subsequently, 5 μL of each test
compound at various concentrations (50, 100, 200 and 300 μg/mL in 1% DMSO) was added to the
respective wells, except for the two control wells, which received 5 μL of either PBS buffer or 1%
DMSO. Then, 5 μL of pyruvate dehydrogenase E1 (PDH E1) protein (10 μM) and 5 μL of ATP
(10 μM) were added to each well. To initiate phosphorylation, 5 μL of PDK-1 (20 μM) in protein
buffer (1 mM MgCl2, 2000 mM KCl, 40 mM K3PO4) was added to all the wells except the control
wells, which received 5 μL of protein buffer instead. The plate was then mixed thoroughly and
incubated at 37 °C for 30 minutes. After incubation, 50 μL of kinase-Glo® reagent was added to each
well, followed by a 10-minute incubation at room temperature with gentle shaking to stabilize the
luminescent signal. Luminescence was then measured using a microplate reader.
The IC50 value—defined as the concentration of a compound required to reduce luminescence by
50%, compared to untreated control wells—was determined for each compound from the
corresponding dose–response curve generated by plotting PDK-1 inhibition (%) versus compound
concentration. Sodium dichloroacetate (SDA, 1000 μM) was used as a reference PDK-1inhibitor. […]

[4] = tested on: HCT-116 colon carcinoma cells; test: Cell viability, LDH release assay, HCT-116; conditions: for viability at 100 µg/mL: read-out: Mean % of viable cells ± SD, HCT-116, 100 µg/mL, 48 h, LDH release assay
Method: as §1, §2, §3, §4, §5, §6, §7

[5] = DPPH radical scavenging assay; conditions: three independent experiments; read-out: Mean IC50 (mM) for initial DPPH radicals ± SD
Method: The antioxidant activities of the studied compounds were assessed using the 1,1-diphenyl-2-picrylhydrazyl (DPPH) radical scavenging method as detailed by Bersuder et al.. The results were expressed as IC50 (mM)—the concentration of the test compound required to neutralize 50% of DPPH radicals.
The antioxidant efficiencies of target compounds were determined using the 1,1-diphenyl-2-picrylhydrazyl (DPPH) radical scavenging method as detailed by Bersuder et al.. […]
S3.2. Evaluation of Biological Activities.
S3.2.1. In vitro DPPH radical scavenging assay.
The antioxidant efficiencies of compounds—3a−e, 8, 9a−c, 13, 14, 17, 18a−h, 20, 22, 23, and 25—were
determined using the 1,1-diphenyl-2-picrylhydrazyl (DPPH) radical scavenging method as
detailed by Bersuder et al.. Fundamentally, the purple color of the stabilized DPPH radical
fades in the presence of an antioxidant, thus, the change of absorbance can be followed
spectrophotometrically at 519 nm. In the assay, equal volumes (0.5 mL) of DPPH ethanolic solution
and each compound (0-2 mg/mL in DMSO) or butylated hydroxytoluene (BHT) as the reference
were mixed well by shaking. The negative control consisted of the same amount of DMSO and
DPPH solution. After, incubation all mixtures at room temperature in the dark for one hour, the
absorbance of the residual DPPH radicals was measured at 519 nm using the UV‐vis
spectrophotometer. The DPPH radical scavenging activity of each compound (%) was calculated
Scavenging activity = (1 − Acompound/AControl) * 100, where Acompound and Acontrol the absorbance values
of each tested compound (or BHT) and the negative control, respectively. The half maximal
inhibitory concentration (IC50) for each compound in mg/mL was deduced by graphing the dose-
response curve relating the scavenging activity (%) to the compound concentration. Data points
represent the mean ± standard deviation (SD) of three independent determinations.

HUVECs = test: Cell viability, LDH release assay, normal HUVECs; conditions: 100 µg/mL, 48 h
Method: as §1, §2, §8, §9, §10, §11, §12, §13

PDK-1, sequence (Q15118 29-436): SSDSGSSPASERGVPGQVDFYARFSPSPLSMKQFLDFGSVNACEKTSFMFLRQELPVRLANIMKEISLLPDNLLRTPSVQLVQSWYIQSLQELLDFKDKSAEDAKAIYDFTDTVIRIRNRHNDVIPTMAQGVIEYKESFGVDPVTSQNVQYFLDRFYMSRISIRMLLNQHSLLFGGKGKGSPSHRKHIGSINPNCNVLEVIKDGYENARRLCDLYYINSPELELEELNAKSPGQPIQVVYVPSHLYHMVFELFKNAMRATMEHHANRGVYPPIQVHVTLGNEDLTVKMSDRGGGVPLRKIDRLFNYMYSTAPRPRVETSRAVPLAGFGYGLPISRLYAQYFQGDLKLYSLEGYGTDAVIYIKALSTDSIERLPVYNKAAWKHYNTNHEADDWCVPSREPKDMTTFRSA

Compound	inhibition at 100 µg/mL [3] [%]	inhibition at 100 µg/mL (PDK-1) [%]	IC50 [5] [mM]	IC50 ([1]; Homo sapiens, LoVo, read-out: Mean IC50 Values in µM ± SD, LoVo cells) [µM]	IC50 ([4]; Homo sapiens, HCT-116, 48 h, read-out: Mean IC50 Values in µM ± SD, HCT-116 cells) [µM]	viability at 100 µg/mL ([1]; Homo sapiens, LoVo) [%]	viability at 48 h, 100 µg/mL [2] [%]	viability at 100 µg/mL ([4]; Homo sapiens, HCT-116, 48 h) [%]	Mean % of viable cells ± SD, LoVo ([1]; 100 µg/mL, LDH release assay) [%]	Mean % of viable cells ± SD, HUVEC (HUVECs) [%]	Mean Inhibition Percent ± SD, LDHA [3] [%]	Mean Inhibition Percent ± SD, PDK-1 (PDK-1) [%]	Mean % of viable cells ± SD, HCT-116 ([4]; 100 µg/mL, 48 h, LDH release assay) [%]
COc1cc(/C=N/c2ncnc3sc4c(c23)CCCC4)cc(Br)c1O [Compound 3c, (E)-2-Bromo-6-methoxy-4-(((5,6,7,8-tetrahydrobenzo[4,5]thieno[2,3-d]pyrimidin-4-yl)imino)methyl)phenol]	40 ± 1.41	7.6 ± 0.85	0.476 ± 0.038			95.7 ± 1.53	93 ± 2.65	89.3 ± 4.16					
CCOC(=O)c1c(/N=C/c2cc(Br)c(O)c(OC)c2)sc2c1CCC(c1ccccc1)C2 (centres unmarked) [Compound 3a, (E)-Ethyl2-((3-bromo-4-hydroxy-5-methoxybenzylidene)amino)-6-phenyl-4,5,6,7-tetrahydrobenzo[b]thiophene-3-carboxylate]	25.8 ± 2.48	25.1 ± 3.04	0.214 ± 0.027			57.7 ± 1.53	85 ± 1.73	60.7 ± 3.06					
COc1cc(/C=C(\NC(=O)c2ccccc2)C(=O)NNC(=S)Nc2ccccc2)ccc1O [Compound 23, N-(1-(4-Hydroxy-3-methoxyphenyl)-3-oxo-3-(2-(phenylcarbamothionyl)hydrazinyl)prop-1-en-2-yl)benzamide]	34.4 ± 3.32	11 ± 1.41	1.21 ± 0.03	444 ± 9.17	215.4 ± 1.25	57.5 ± 2.12	80 ± 1.92	23 ± 2.83					
N-(3-(2-(1-(2-((2,4-Dimethylphenyl)amino)-2-oxoethyl)-2-oxoindolin-3-ylidene)hydrazinyl)-1-(4-hydroxy-3-methoxyphenyl)-3-oxoprop-1-en-2-yl)benzamide [Compound 25]			0.162 ± 0.023						71.50 ± 3.54	87.94 ± 2.33	40.50 ± 3.54	13.30±1.84	79.00 ± 2.83

The next lines start with results.

inhibition at 100 µg/mL [3] [%]	inhibition at 100 µg/mL (PDK-1) [%]	IC50 [5] [mM]	IC50 ([1]; Homo sapiens, LoVo, read-out: Mean IC50 Values in µM ± SD, LoVo cells) [µM]	IC50 ([4]; Homo sapiens, HCT-116, 48 h, read-out: Mean IC50 Values in µM ± SD, HCT-116 cells) [µM]	Compound	viability at 100 µg/mL ([1]; Homo sapiens, LoVo) [%]	viability at 48 h, 100 µg/mL [2] [%]	viability at 100 µg/mL ([4]; Homo sapiens, HCT-116, 48 h) [%]	Mean % of viable cells ± SD, LoVo ([1]; 100 µg/mL, LDH release assay) [%]	Mean % of viable cells ± SD, HUVEC (HUVECs) [%]	Mean Inhibition Percent ± SD, LDHA [3] [%]	Mean Inhibition Percent ± SD, PDK-1 (PDK-1) [%]	Mean % of viable cells ± SD, HCT-116 ([4]; 100 µg/mL, 48 h, LDH release assay) [%]
36.8 ± 1.91	30 ± 1	0.781 ± 0.046			COc1cc(OC)c(/C=N/n2c(C)nc3ccc(F)cc3c2=O)c(OC)c1 [Compound 18e, (E)-6-Fluoro-2-methyl-3-((2,4,6-trimethoxybenzylidene)amino)quinazolin-4(3H)-one]	88.7 ± 3.21	83 ± 3.61	87.3 ± 2.08					
40.5 ± 2.19	26.9 ± 2.62	1.55 ± 0.035			CCOC(=O)c1sc(/N=C/c2cc(Br)c(O)c(OC)c2)nc1C [Compound 9a, Ethyl (E)-2-((3-bromo-4-hydroxy-5-methoxybenzylidene)amino)-4-methyl thiazole-5-carboxylate]	65.3 ± 3.54	70.3 ± 1.53	72 ± 2.65					
67.3 ± 3.32	48.8 ± 1.77	0.881 ± 0.041			CCOC(=O)c1sc(/N=C/c2c(O)ccc3ccccc23)nc1C [Compound 9c, Ethyl(E)-2-(((2-hydroxynaphthalen-1-yl)methylene)amino)-4-methylthiazole-5-carboxylate]	60.3 ± 2.12	80.7 ± 3.22	64.3 ± 3.06					
14.4 ± 1.41	52 ± 3.61	0.288 ± 0.029			Cc1nc2ccc(F)cc2c(=O)n1/N=C/c1c(O)ccc2ccccc12 [Compound 18f, (E)-6-Fluoro-3-(((2-hydroxynaphthalen-1-yl)methylene)amino)-2-methylquinazolin-4(3H)-one]	73 ± 3.46	83 ± 1.73	83 ± 3					
